# Columns and labels:
# [1] = test system: Aeromonas liquefaciens Y-62; assay: Oral administration to eels after Aeromonas infection; assay type: in vivo, eels (Anguilla Japonica); conditions: oral 3.1 mg/kg/day at 4 hours after infection and next day; seventh day
# Description: Groups of eels (Anguilla Japonica, average weight 100 g) (each group consisting of 50 eels) were infected intramuscularly with Aeromonas liquefaciens Y-62 (10^9 germs/fish). A suspension consisting of a diet containing PA was orally administered to the eels at 4 hours after the infection and on the next day, using a catheter, at a dose of 3.1 mg/kg/day.
# The temperature of the water was kept at 25° to 26°C. during the entire experimental period.
# [2] = test system: Aeromonas liquefaciens Y-62; assay: Oral administration to eels starting the day before Aeromonas infection; assay type: in vivo, eels (Anguilla Japonica); conditions: oral 1.56 mg/kg/day for 2 days starting the day before infection; seventh day
# Description: Groups of eels (Anguilla Japonica, average weight 100 g) (each group consisting of 50 fish) were infected intramuscularly with Aeromonas liquefaciens Y-62 (10^9 germs/fish). For 2 days starting at the day before infection, a suspension consisting of a diet containing PA was orally administered to the eels using a catheter at a dose of 1.56 mg/kg/day. On the seventh day after the infection, the eels were observed.
# During the experimental period, the temperature of the water was maintained at 25° to 26°C.
# eels = assay: Oral toxicity in eels; assay type: in vivo, eels (Anguilla Japonica); conditions: oral 2000 mg/kg, 7 days, 10 eels per group, 27° to 27.5°C
# Description: A suspension of PA in 0.2% carboxymethylcellulose was orally given to groups each consisting of 10 eels (Anguilla Japonica, about 160 g) and observation was made for the following 7 days. The temperature of the water was kept at 27° to 27.5°C.
# goldfish [3] = assay: Bathing toxicity in goldfish; assay type: in vivo; conditions: for Mortality: 5 days; for Number of the survival after 1 day / Number of the survival after 2 days / Number of the survival after 3 days / Number of the survival after 4 days / Number of the survival after 5 days: day 0: 6 fish
# Description: (§1) Groups of goldfish each weighing 7 to 8 g (each group consisting of 6 goldfish) were placed in 6 liters of fresh water (27° to 30°C.) containing PA in varying concentrations with aeration for 5 days. During this time, observation was made.
# [4] = Bathing toxicity in goldfish; assay type: in vivo; conditions: fresh water; goldfish, bathing for 5 days, 27° to 30°C; read-out: LC50 (50% lethal concentration)
# Description: as §1
# [5] = test system: Aeromonas liquefacieus Y-62; assay: Oral effect against Aeromonas infection in goldfish; assay type: in vivo; conditions: for Percent survival: 5 days; for Number of surviving fish after 1 day / Number of surviving fish after 2 days / Number of surviving fish after 3 days / Number of surviving fish after 4 days / Number of surviving fish after 5 days: day 0: PA 10, others 5 fish
# Description: Goldfish each weighing about 6 - 7 g were given a fish food containing each of the test compounds. After 30 minutes, the fish were infected intramuscularly with Aeromonas liquefacieus Y-62 (about 10^7 germs/fish) under ether anesthesia. […] In the same manner, the control group was given the same fish food without the test compound.
# [6] = test system: Aeromonas liquefaciens Y-62; assay: Bathing effect against Aeromonas infection in goldfish; assay type: in vivo; conditions: for Percent survival: 5 days; for Number of survival after 1 day / Number of survival after 2 days / Number of survival after 3 days / Number of survival after 4 days / Number of survival after 5 days: day 0: 6 fish
# Description: Goldfish each weighing about 8 g were infected intramuscularly with Aeromonas liquefaciens Y-62 (10^7 germs/fish) under ether anesthesia. The fish were grouped and each group was placed in 6 liters of fresh water (23° to 27°C.) containing PA in the amount indicated in Table 3.
# Then, observation was made for the following 5 days. In the same manner, the control group was placed in 6 liters of fresh water without any test compound incorporated in it.
# [7] = test system: Pasteurella piscicida Al-3; assay: MIC by broth serial dilution; assay type: cell-based; conditions: Photobacterium damselae, AL3; 2% NaCl-Brain Heart Infusion pH 7.3, 25°C, 48 hours; read-out: MIC
# Description: (§2) The MIC (minimum inhibitory concentration) of a test compound was determined by the serial dilution method on various pathogenic microorganisms incubated under the following experimental conditions. The lowest concentration at which the visible growth of the organism was inhibited was considered as MIC. […]
# (§3) the broth-dilution method bouillon, pH 7.2, except for Vibrio (3% NaCl-bouillon, pH 7.2), Pasteurella (2% NaCl-Brain Heart Infusion, pH 7.3 and Chondrococcus (TY medium, pH 7.3) 1 drop of a bacterial suspension per test tube (100 - 1000 minimal growing units in the medium) 25°C, except for Pseud. anguilliseptica (20°C)
# (§4) 48 hours, except for Pseudo. anguilliseptica ([…])
# Vibrio anguillarum K-3 = assay: MIC by broth serial dilution; assay type: cell-based; conditions: K3, 3% NaCl-bouillon pH 7.2, 25°C, 48 hours, read-out: MIC
# Description: as §2, §3, §4
# [8] = test system: Pseudomonas anguilliseptica T-2; assay: MIC by broth serial dilution; assay type: cell-based; conditions: T2, bouillon pH 7.2, 20°C, 7 hours, read-out: MIC
# Description: as §2, §3, §4
# [9] = test system: Aeromonas salmonicida Hara-2; assay: MIC by broth serial dilution; assay type: cell-based; conditions: HARA2, bouillon pH 7.2, 25°C, 48 hours, read-out: MIC
# Description: as §2, §3, §4
# goldfish [10] = assay: Oral toxicity in goldfish; assay type: in vivo; conditions: 10% in diet (PA 800, AT-1493 955, AT-1557 935, AT-1475 923 mg/kg)
# Description: A diet containing 10% of each of the test compounds was given orally to groups each consisting of 5 goldfish each weighing 6 to 10 g, and observation was made for the following 7 days. The temperature of the water was maintained at 28°C.
# [11] = 0.03% in diet (PA 2.5, AT-1493 2.5, AT-1557 2.2 mg/kg)
# [12] = 0.1% in diet (PA 6.1, AT-1493 7.5, AT-1557 7.6, AT-1475 7.5 mg/kg)
structure (smiles),measurement,setting,value
"CCn1cc(C(=O)O)c(=O)c2cnc(N3CCCC3)nc21 [PA, 5,8-dihydro-2-pyrrolidino-8-ethyl-5-oxopyrido[2,3-d]pyrimidine-6-carboxylic acid]",rate of survival,[1],100%
same,eels survived,[2],80%
same,survival and external appearance,eels,All eels survived without abnormality of their external appearance
same,Mortality,goldfish [3]; bathing conc. 4 μg/ml,0%
same,Number of the survival after 1 day,goldfish [3]; bathing conc. 4 μg/ml,6
same,Number of the survival after 2 days,goldfish [3]; bathing conc. 4 μg/ml,6
same,Number of the survival after 3 days,goldfish [3]; bathing conc. 4 μg/ml,6
same,Number of the survival after 4 days,goldfish [3]; bathing conc. 4 μg/ml,6
same,Number of the survival after 5 days,goldfish [3]; bathing conc. 4 μg/ml,6
same,Mortality,goldfish [3]; bathing conc. 8 μg/ml,20%
same,Number of the survival after 1 day,goldfish [3]; bathing conc. 8 μg/ml,6
same,Number of the survival after 2 days,goldfish [3]; bathing conc. 8 μg/ml,6
same,Number of the survival after 3 days,goldfish [3]; bathing conc. 8 μg/ml,5
same,Number of the survival after 4 days,goldfish [3]; bathing conc. 8 μg/ml,5
same,Number of the survival after 5 days,goldfish [3]; bathing conc. 8 μg/ml,5
same,Mortality,goldfish [3]; bathing conc. 16 μg/ml,100%
same,Number of the survival after 1 day,goldfish [3]; bathing conc. 16 μg/ml,6
same,Number of the survival after 2 days,goldfish [3]; bathing conc. 16 μg/ml,6
same,Number of the survival after 3 days,goldfish [3]; bathing conc. 16 μg/ml,1
same,Number of the survival after 4 days,goldfish [3]; bathing conc. 16 μg/ml,0
same,LC50 at 120 h,[4],10.1 µg/mL
same,Percent survival,[5]; [11],60%
same,Number of surviving fish after 1 day,[5]; [11],10
same,Number of surviving fish after 2 days,[5]; [11],9
same,Number of surviving fish after 3 days,[5]; [11],7
same,Number of surviving fish after 4 days,[5]; [11],6
same,Number of surviving fish after 5 days,[5]; [11],6
same,Percent survival,[5]; [12],100%
same,Number of surviving fish after 1 day,[5]; [12],10
same,Number of surviving fish after 2 days,[5]; [12],10
same,Number of surviving fish after 3 days,[5]; [12],10
same,Number of surviving fish after 4 days,[5]; [12],10
same,Number of surviving fish after 5 days,[5]; [12],10
same,Percent survival,[6]; bathing conc. 0.5 μg/ml,100%
same,Number of survival after 1 day,[6]; bathing conc. 0.5 μg/ml,6
same,Number of survival after 2 days,[6]; bathing conc. 0.5 μg/ml,6
same,Number of survival after 3 days,[6]; bathing conc. 0.5 μg/ml,6
same,Number of survival after 4 days,[6]; bathing conc. 0.5 μg/ml,6
same,Number of survival after 5 days,[6]; bathing conc. 0.5 μg/ml,6
same,Percent survival,[6]; bathing conc. 1 μg/ml,100%
same,Number of survival after 1 day,[6]; bathing conc. 1 μg/ml,6
same,Number of survival after 2 days,[6]; bathing conc. 1 μg/ml,6
same,Number of survival after 3 days,[6]; bathing conc. 1 μg/ml,6
same,Number of survival after 4 days,[6]; bathing conc. 1 μg/ml,6
same,Number of survival after 5 days,[6]; bathing conc. 1 μg/ml,6
same,MIC,[7],0.3 µg/mL
same,MIC,Vibrio anguillarum K-3,1 µg/mL
same,MIC,[8],0.1 µg/mL
same,MIC,[9],1 µg/mL
same,Mortality,goldfish [10]; 7 days,0%
same,Number of the survival after 1 day from administration,goldfish [10]; day 0: 5 fish,5
same,Number of the survival after 2 days from administration,goldfish [10]; day 0: 5 fish,5
same,Number of the survival after 3 days from administration,goldfish [10]; day 0: 5 fish,5
same,Number of the survival after 4 days from administration,goldfish [10]; day 0: 5 fish,5
same,Number of the survival after 5 days from administration,goldfish [10]; day 0: 5 fish,5
same,Number of the survival after 6 days from administration,goldfish [10]; day 0: 5 fish,5
same,Number of the survival after 7 days from administration,goldfish [10]; day 0: 5 fish,5

# Reference: patent publication US3981999A, “Fish disease treatment” (Dainippon Pharmaceutical Co., Ltd., priority 1973, dated 1976)
